Values joined by “and” are separate entries in the source; they are usually repeats but may differ in a detail not shown here. Equal entries are not always repeated.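 Five compound concentrations were applied to cells in 96-well plates for 48 hours; endpoints were derived by simple linear interpolation of the resulting dose-response curve. At the GI50, growth is halved. At the TGI there is no net growth.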
Legend:
Assay in all cases: inhibition of tumour cell growth, NCI panel, 48 h
[1] = tested on: CAKI-1 renal
[2] = tested on: NCI-H460 lung
[3] = tested on: UACC-257 melanoma
[4] = tested on: NCI-H23 lung
[5] = tested on: ACHN renal
[6] = tested on: SK-MEL-28 melanoma
[7] = tested on: MCF7 breast
[8] = tested on: DU-145 prostate
[9] = tested on: MDA-MB-435
[10] = tested on: T-47D breast

SMILES | TGI [1] | TGI [2] | TGI [3] | TGI [4] | TGI [5] | TGI [6] | GI50 [1] | GI50 [2] | GI50 [3] | GI50 [4] | GI50 [5] | GI50 [6] | GI50 [7] | GI50 [8] | TGI [8] | GI50 [9] | TGI [9] | GI50 [10] | TGI [10] | TGI [7]
CCCCCCCCCCCCCCCC(=O)NCC(COP(=O)([O-])OCC[N+](C)(C)C)OCC (configuration not stated) | 35.2 µM | 7.28 µM | 30.4 µM | 39.3 µM | 29.1 µM | 36.6 µM | – | – | – | – | – | – | – | – | – | – | – | – | – | –
CCOC(=O)CC1=Nc2ccccc2SC1 | > 100 µM | > 100 µM | > 100 µM | > 100 µM | > 100 µM | 2.73 µM | – | – | – | – | – | – | – | – | – | – | – | – | – | –
CCCCCCCCCCCCC(=O)OC(c1cnco1)c1nc(C(O)CC(O)C(O)C(C)O)co1 (configuration not stated) | > 55.3 µM | > 37 µM | > 83 µM | 25 µM | > 71.9 µM | > 64.2 µM | 4.96 µM | 0.443 µM | 5.16 µM | 1.23 µM | 6.38 µM | 0.686 µM | – | – | – | – | – | – | – | –
O=C(Nc1cccc(-n2ccc3c(NC(=O)c4ccccc4)nccc32)c1)c1cccc(C(F)(F)F)c1 | 3.36 µM | 1.22 µM | 19.9 µM | > 46.2 µM | 12.5 µM | 4.04 µM | 0.0556 µM | 0.0354 µM | 0.0804 µM | 0.0685 µM | 0.0782 µM | 0.0558 µM | 0.0362 µM | 0.0363 µM | 0.168 µM | 0.0172 µM | 0.043 µM | – | – | –
N#Cc1c(NC(=O)c2cccc(C(F)(F)F)c2)sc2c1CCC(=O)C2 | 1 µM | – | 3.85 µM | 2.88 µM | 0.985 µM | 1.92 µM | 0.287 µM | 1.19 µM | 0.728 µM | 0.379 µM | 0.327 µM | 0.526 µM | – | 3.3 µM | > 100 µM | 0.651 µM | 2.11 µM | 0.297 µM | 1.97 µM | –
O=C1NC2(CCCC2)C(=O)C12CCCC2 | > 100 µM | > 100 µM | > 100 µM | > 100 µM | > 100 µM | > 100 µM | – | – | – | – | – | – | – | – | – | – | – | – | – | –
C[C@@H]1CC[C@H]2C(COCC3=C(C(F)(F)F)O[C@@H]4O[C@@]5(C)CC[C@H]6[C@H](C)CC[C@@H]3[C@@]46OO5)=C(C(F)(F)F)O[C@@H]3O[C@@]4(C)CC[C@@H]1[C@]32OO4 | > 100 µM | > 100 µM | – | > 100 µM | > 100 µM | > 100 µM | 0.205 µM | < 0.01 µM | – | < 0.01 µM | 0.028 µM | – | < 0.01 µM | – | – | < 0.0108 µM | > 100 µM | < 0.01 µM | > 100 µM | > 100 µM
C=C1C(=O)O[C@H]2[C@H]1CC/C(CNC(=O)c1c[nH]c3ccc(F)cc13)=C\CC[C@@]1(C)O[C@@H]21 | – | 14.8 µM | 4.89 µM | 3.8 µM | 2.38 µM | 3.16 µM | – | 3.43 µM | 2.06 µM | 1.68 µM | 1.04 µM | 1.33 µM | – | 1.09 µM | 2.35 µM | 1.77 µM | 7.41 µM | 1.36 µM | 5.03 µM | –
C1COCCN1.C1COCCN1.N.N.[Cl-].[Pt+2] | > 100 µM | > 100 µM | – | > 100 µM | – | > 100 µM | 54.1 µM | > 100 µM | – | > 100 µM | – | > 100 µM | – | – | – | – | – | – | – | –
O=c1[nH]c2ccccc2cc1C(Cl)=C(Cl)Cl | > 100 µM | > 100 µM | > 100 µM | > 100 µM | > 100 µM | > 100 µM | – | – | – | – | – | – | – | – | – | – | – | – | – | –
CC(C)(C)OC(=O)n1cc(CNC(=S)Nc2ccccc2)c2ccccc21 | 23.2 µM | 22 µM | 30.5 µM | 24.4 µM | 19.6 µM | 95.3 µM | 4.68 µM | 9.36 µM | 10.9 µM | 10.7 µM | 5.12 µM | 27.4 µM | 9.02 µM | 7 µM | 35.4 µM | 12.2 µM | 30.1 µM | – | – | 48 µM
FC(F)(F)c1nc(-c2ccccc2Cl)[nH]c1C(F)(F)F | 1.65 µM | 4.17 µM | 2.2 µM | 2.03 µM | 2.65 µM | 5.32 µM | – | – | – | – | – | – | – | – | – | – | – | – | – | –
COc1cc2c(c3c1C=CCO3)C(=O)c1ccccc1C2=O | – | > 100 µM | 68.9 µM | > 100 µM | > 100 µM | > 100 µM | – | – | – | – | – | – | – | – | – | – | – | – | – | –
Cc1cc2c(cc1C)[n+](=O)c(C(=O)C/C(=N/NC(=O)c1ccccc1O)C(=O)Nc1ccccc1C(C)C)c(C)n2[O-] | > 100 µM | > 100 µM | > 100 µM | > 100 µM | > 100 µM | > 100 µM | – | – | – | – | – | – | – | – | – | – | – | – | – | –
COC(=O)C(c1[nH]nc2ccccc12)C(C(=O)OC)c1[nH]nc2ccccc12 (configuration not stated) | – | > 100 µM | > 100 µM | > 100 µM | > 100 µM | > 100 µM | – | – | – | – | – | – | – | – | – | – | – | – | – | –
C#CCNC(=O)NC(CCCNC(=O)OCc1ccccc1)C(=O)OCc1ccccc1 (configuration not stated) | 87.5 µM | > 100 µM | 93.3 µM | > 100 µM | > 100 µM | > 100 µM | – | – | – | – | – | – | – | – | – | – | – | – | – | –
N#CC1(c2nc3ccccc3o2)C(=O)C(=O)N(C2C3CC4CC(C3)CC2C4)C(=O)C1=O (configuration not stated) | > 100 µM | > 100 µM | > 100 µM | > 100 µM | > 100 µM | > 100 µM | – | – | – | – | – | – | – | – | – | – | – | – | – | –
COc1ccc(C(=O)Nc2ncc(Cc3ccc(Cl)cc3)s2)cc1 | > 73.1 µM | > 100 µM | > 100 µM | > 100 µM | > 100 µM | > 100 µM | 0.0471 µM | 0.0406 µM | 20 µM | 0.239 µM | 0.0603 µM | 2.12 µM | 0.0385 µM | 0.104 µM | > 100 µM | – | – | – | – | > 100 µM
COc1ccc2cc1Oc1ccc(cc1)C[C@H]1c3cc(c(OC)cc3CCN1C)Oc1c(OC)c(OC)cc3c1[C@H](C2)N(C)CC3 | – | 14.5 µM | 11.4 µM and 14.6 µM and > 100 µM | 20.5 µM and 27.4 µM and > 100 µM | 15.4 µM and 27.2 µM and 40 µM | – | – | – | 4.06 µM | – | – | – | 5.27 µM | – | – | – | – | – | – | 14 µM and 17.8 µM and > 100 µM
O=C(c1cccs1)c1c(C(F)(F)F)n([O-])c2ccccc2[n+]1=O | 2.36 µM | 0.597 µM | – | 1.73 µM | 1.09 µM | 14.5 µM | 1 µM | 0.234 µM | – | 0.788 µM | 0.417 µM | 5.59 µM | 0.549 µM | 0.695 µM | 1.34 µM | 1.15 µM | 3.5 µM | 4.38 µM | 11.2 µM | 1.95 µM
